Results on five compounds are retold here after patent publication US12281149B2, “Modulators of G-protein coupled receptors” (priority 2021, dated 2025).

Each structure is given as a SMILES string. *1 amine or outer side, *2 acyl side, *3 side chain or, on linkers, in order; H or OH if unused. Where a SMILES comes first, the peptide text is derived from it. Side-chain parts run from the residue outwards. [ ]: non-standard residue; d: D form. The star is where a group is joined. C20 diacid = O=C(O)CCCCCCCCCCCCCCCCCCC(=O)*; γGlu = O=C(O)[C@H](CCC(=O)[*:2])N[*:1]; X34 = CCC(CC)(C(=O)*)c1ccc(Cl)c(Cl)c1; X20 = O=C(C1(c2ccc(Cl)cc2)CCOCC1)*; X36 = O=C(C1(c2ccc(Cl)cc2)CCCCC1)*; X39 = CCC(CC)(C(=O)*)c1ccc(Cl)cc1; X53 = CC(C)(C(=O)*)c1cc(F)cc(F)c1; AEEA = NCCOCCOCC(=O)O; Aib = CC(C)(N)C(=O)O; βAla = NCCC(=O)O

Common to all, as to type: cell-based
The target in test [1] is T1, GIP receptor (Homo sapiens, UniProt P48546).
T1 sequence (P48546 22-466): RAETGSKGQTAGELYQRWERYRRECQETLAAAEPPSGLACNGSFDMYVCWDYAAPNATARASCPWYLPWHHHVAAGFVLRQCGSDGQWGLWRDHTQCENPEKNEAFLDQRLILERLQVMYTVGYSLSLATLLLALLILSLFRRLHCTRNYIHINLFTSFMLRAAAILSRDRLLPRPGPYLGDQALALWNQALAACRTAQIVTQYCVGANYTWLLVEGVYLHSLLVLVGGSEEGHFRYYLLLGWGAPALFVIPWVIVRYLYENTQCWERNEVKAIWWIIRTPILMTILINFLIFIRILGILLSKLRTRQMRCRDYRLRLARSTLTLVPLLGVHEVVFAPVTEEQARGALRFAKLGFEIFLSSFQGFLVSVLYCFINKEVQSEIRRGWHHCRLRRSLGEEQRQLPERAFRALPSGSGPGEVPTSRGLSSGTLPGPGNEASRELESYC
Put plainly: HitHunter cAMP assay, GIP receptor. To be noted: for EC50: CHO cells stably expressing GIP receptor, cAMP accumulation, 30 min, read-out: EC50 GIP-1R; for Emax: CHO cells, cAMP, normalized to maximum signal from GIP (high) and DMSO (low), read-out: Emax GIP-1R.

For test [2], the target named is T2, GLP-1 receptor (Homo sapiens, UniProt P43220). The test is described as follows: PathHunter β-arrestin assay, GLP-1 receptor. Also on record: host or cells: PathHunter CHO-K1 GLP1R β-Arrestin Cell Line. To be noted: β-arrestin-2 recruitment, PathHunter CHO-K1 GLP1R β-Arrestin Cell Line, 90 min at 37° C.; normalized to GLP-1; read-out: GLP-1R β Arrestin EC50.
T2 sequence (P43220 24-463): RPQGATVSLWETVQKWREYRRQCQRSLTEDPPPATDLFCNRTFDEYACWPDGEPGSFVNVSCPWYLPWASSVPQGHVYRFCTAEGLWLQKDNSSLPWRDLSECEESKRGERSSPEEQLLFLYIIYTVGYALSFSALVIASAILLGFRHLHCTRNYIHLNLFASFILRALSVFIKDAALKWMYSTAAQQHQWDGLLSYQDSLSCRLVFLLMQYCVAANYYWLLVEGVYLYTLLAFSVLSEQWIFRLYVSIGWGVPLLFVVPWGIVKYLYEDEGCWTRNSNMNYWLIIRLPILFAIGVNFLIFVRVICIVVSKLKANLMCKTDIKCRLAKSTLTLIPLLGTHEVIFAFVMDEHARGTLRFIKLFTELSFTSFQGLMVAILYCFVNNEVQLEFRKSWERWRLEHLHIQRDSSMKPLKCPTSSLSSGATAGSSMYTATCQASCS
In test [3] the target is T2, GLP-1 receptor. Put plainly: HitHunter cAMP assay, GLP-1 receptor. To be noted: for EC50: CHO cells stably expressing human GLP-1 receptor, cAMP accumulation, 30 min, read-out: EC50 GLP-1R; for Emax: CHO cells, cAMP, normalized to maximum signal from GLP-1 (high) and DMSO (low), read-out: Emax GLP-1R.
Test [4] has as its target T1, GIP receptor. Put plainly: PathHunter β-arrestin assay, GIP receptor. To be noted: β-arrestin-2 recruitment, PathHunter CHO-K1 GIPR β-Arrestin Cell Line, 90 min at 37° C.; normalized to GIP; read-out: GIPR β Arrestin EC50. Also on record: host or cells: PathHunter CHO-K1 GIPR β-Arrestin Cell Line.

For `CC[C@H](C)[C@H](NC(=O)[C@H](CC(C)C)NC(=O)[C@H](Cc1c[nH]c2ccccc12)NC(=O)[C@H](CCC(N)=O)NC(=O)[C@@H](NC(=O)[C@H](Cc1ccccc1)NC(=O)[C@H](C)NC(=O)[C@H](CCCCNC(=O)COCCOCCNC(=O)COCCOCCNC(=O)CC[C@H](NC(=O)CCCCCCCCCCCCCCCCCCC(=O)O)C(=O)O)NC(=O)[C@H](CCC(N)=O)NC(=O)[C@H](C)NC(=O)[C@@H](NC(=O)[C@H](CCCCN)NC(=O)[C@H](CC(=O)O)NC(=O)[C@H](CC(C)C)NC(=O)C(C)(C)NC(=O)[C@@H](NC(=O)[C@H](CO)NC(=O)[C@H](Cc1ccc(O)cc1)NC(=O)[C@H](CC(=O)O)NC(=O)[C@H](CO)NC(=O)[C@@H](NC(=O)[C@H](Cc1ccccc1)NC(=O)[C@@H](NC(=O)CNC(=O)[C@H](CCC(=O)O)NC(=O)CCNC(=O)C1(c2ccc(Cl)cc2)CCOCC1)[C@@H](C)O)[C@@H](C)O)[C@@H](C)CC)[C@@H](C)CC)C(C)C)C(=O)N[C@@H](C)C(=O)NCC(=O)NCC(=O)N1CCC[C@H]1C(=O)N[C@@H](CO)C(=O)N[C@@H](CO)C(=O)NCC(=O)N[C@@H](C)C(=O)N1CCC[C@H]1C(=O)N1CCC[C@H]1C(=O)N1CCC[C@H]1C(=O)N[C@@H](CO)C(N)=O` [Compound 172] ({X20-βAla}-EGTFTSDYSI[Aib]LDKIAQK([AEEA-AEEA-γGlu-C20 diacid])AFVQWLIAGGPSSGAPPPS-NH2), the concentration giving a half-maximal response (EC50) on GIP receptor [1] was 0.001 to 0.01 µM; at GLP-1 receptor [2] it was over 1 µM; on GLP-1 receptor [3] it was 0.001 to 0.01 µM; on GIP receptor [4] it was over 1 µM. Besides, the results for the Emax at GIP receptor [1] and at GLP-1 receptor [3] were 109% and 89%, respectively.
As to `CC[C@H](C)[C@H](NC(=O)[C@H](CC(C)C)NC(=O)[C@H](Cc1c[nH]c2ccccc12)NC(=O)[C@H](CCC(N)=O)NC(=O)[C@@H](NC(=O)[C@H](Cc1ccccc1)NC(=O)[C@H](C)NC(=O)[C@H](CCCCNC(=O)COCCOCCNC(=O)COCCOCCNC(=O)CC[C@H](NC(=O)CCCCCCCCCCCCCCCCCCC(=O)O)C(=O)O)NC(=O)[C@H](CCC(N)=O)NC(=O)[C@H](C)NC(=O)[C@@H](NC(=O)[C@H](CCCCN)NC(=O)[C@H](CC(=O)O)NC(=O)[C@H](CC(C)C)NC(=O)C(C)(C)NC(=O)[C@@H](NC(=O)[C@H](CO)NC(=O)[C@H](Cc1ccc(O)cc1)NC(=O)[C@H](CC(=O)O)NC(=O)[C@H](CO)NC(=O)[C@@H](NC(=O)[C@H](Cc1ccccc1)NC(=O)[C@@H](NC(=O)CNC(=O)[C@H](CCC(=O)O)NC(=O)CCNC(=O)C(C)(C)c1cc(F)cc(F)c1)[C@@H](C)O)[C@@H](C)O)[C@@H](C)CC)[C@@H](C)CC)C(C)C)C(=O)N[C@@H](C)C(=O)NCC(=O)NCC(=O)N1CCC[C@H]1C(=O)N[C@@H](CO)C(=O)N[C@@H](CO)C(=O)NCC(=O)N[C@@H](C)C(=O)N1CCC[C@H]1C(=O)N1CCC[C@H]1C(=O)N1CCC[C@H]1C(=O)N[C@@H](CO)C(N)=O` [Compound 173] ({X53-βAla}-EGTFTSDYSI[Aib]LDKIAQK([AEEA-AEEA-γGlu-C20 diacid])AFVQWLIAGGPSSGAPPPS-NH2), the EC50 was 0.001 to 0.01 µM at GIP receptor [1], over 1 µM on GLP-1 receptor [2], under 0.0001 µM at GLP-1 receptor [3] and over 1 µM on GIP receptor [4]. Also, the values for the Emax at GIP receptor [1] and on GLP-1 receptor [3] were 103% and 98%, respectively.
For `CC[C@H](C)[C@H](NC(=O)[C@H](CC(C)C)NC(=O)[C@H](Cc1c[nH]c2ccccc12)NC(=O)[C@H](CCC(N)=O)NC(=O)[C@@H](NC(=O)[C@H](Cc1ccccc1)NC(=O)[C@H](C)NC(=O)[C@H](CCCCNC(=O)COCCOCCNC(=O)COCCOCCNC(=O)CC[C@H](NC(=O)CCCCCCCCCCCCCCCCCCC(=O)O)C(=O)O)NC(=O)[C@H](CCC(N)=O)NC(=O)[C@H](C)NC(=O)[C@@H](NC(=O)[C@H](CCCCN)NC(=O)[C@H](CC(=O)O)NC(=O)[C@H](CC(C)C)NC(=O)C(C)(C)NC(=O)[C@@H](NC(=O)[C@H](CO)NC(=O)[C@H](Cc1ccc(O)cc1)NC(=O)[C@H](CC(=O)O)NC(=O)[C@H](CO)NC(=O)[C@@H](NC(=O)[C@H](Cc1ccccc1)NC(=O)[C@@H](NC(=O)CNC(=O)[C@H](CCC(=O)O)NC(=O)CCNC(=O)C1(c2ccc(Cl)cc2)CCCCC1)[C@@H](C)O)[C@@H](C)O)[C@@H](C)CC)[C@@H](C)CC)C(C)C)C(=O)N[C@@H](C)C(=O)NCC(=O)NCC(=O)N1CCC[C@H]1C(=O)N[C@@H](CO)C(=O)N[C@@H](CO)C(=O)NCC(=O)N[C@@H](C)C(=O)N1CCC[C@H]1C(=O)N1CCC[C@H]1C(=O)N1CCC[C@H]1C(=O)N[C@@H](CO)C(N)=O` [Compound 174] ({X36-βAla}-EGTFTSDYSI[Aib]LDKIAQK([AEEA-AEEA-γGlu-C20 diacid])AFVQWLIAGGPSSGAPPPS-NH2), the EC50 on GIP receptor [1] was 0.01 to 0.1 µM; at GLP-1 receptor [2] it was over 1 µM; on GLP-1 receptor [3], 0.01 to 0.1 µM; on GIP receptor [4] it was over 1 µM. Moreover, the Emax on GIP receptor [1] turned out to be 104%; at GLP-1 receptor [3] it was 93%.
For the compound `CC[C@H](C)[C@H](NC(=O)[C@H](CC(C)C)NC(=O)[C@H](Cc1c[nH]c2ccccc12)NC(=O)[C@H](CCC(N)=O)NC(=O)[C@@H](NC(=O)[C@H](Cc1ccccc1)NC(=O)[C@H](C)NC(=O)[C@H](CCCCNC(=O)COCCOCCNC(=O)COCCOCCNC(=O)CC[C@H](NC(=O)CCCCCCCCCCCCCCCCCCC(=O)O)C(=O)O)NC(=O)[C@H](CCC(N)=O)NC(=O)[C@H](C)NC(=O)[C@@H](NC(=O)[C@H](CCCCN)NC(=O)[C@H](CC(=O)O)NC(=O)[C@H](CC(C)C)NC(=O)C(C)(C)NC(=O)[C@@H](NC(=O)[C@H](CO)NC(=O)[C@H](Cc1ccc(O)cc1)NC(=O)[C@H](CC(=O)O)NC(=O)[C@H](CO)NC(=O)[C@@H](NC(=O)[C@H](Cc1ccccc1)NC(=O)[C@@H](NC(=O)CNC(=O)[C@H](CCC(=O)O)NC(=O)CCNC(=O)C(CC)(CC)c1ccc(Cl)c(Cl)c1)[C@@H](C)O)[C@@H](C)O)[C@@H](C)CC)[C@@H](C)CC)C(C)C)C(=O)N[C@@H](C)C(=O)NCC(=O)NCC(=O)N1CCC[C@H]1C(=O)N[C@@H](CO)C(=O)N[C@@H](CO)C(=O)NCC(=O)N[C@@H](C)C(=O)N1CCC[C@H]1C(=O)N1CCC[C@H]1C(=O)N1CCC[C@H]1C(=O)N[C@@H](CO)C(N)=O` [Compound 175] ({X34-βAla}-EGTFTSDYSI[Aib]LDKIAQK([AEEA-AEEA-γGlu-C20 diacid])AFVQWLIAGGPSSGAPPPS-NH2), the EC50 on GIP receptor [1] is 0.001 to 0.01 µM; on GLP-1 receptor [2], over 1 µM; on GLP-1 receptor [3], 0.001 to 0.01 µM; at GIP receptor [4], under 1 µM. Also, the Emax on GIP receptor [1] came to 110%; at GLP-1 receptor [3], 94%.
`CC[C@H](C)[C@H](NC(=O)[C@H](CC(C)C)NC(=O)[C@H](Cc1c[nH]c2ccccc12)NC(=O)[C@H](CCC(N)=O)NC(=O)[C@@H](NC(=O)[C@H](Cc1ccccc1)NC(=O)[C@H](C)NC(=O)[C@H](CCCCNC(=O)COCCOCCNC(=O)COCCOCCNC(=O)CC[C@H](NC(=O)CCCCCCCCCCCCCCCCCCC(=O)O)C(=O)O)NC(=O)[C@H](CCC(N)=O)NC(=O)[C@H](C)NC(=O)[C@@H](NC(=O)[C@H](CCCCN)NC(=O)[C@H](CC(=O)O)NC(=O)[C@H](CC(C)C)NC(=O)C(C)(C)NC(=O)[C@@H](NC(=O)[C@H](CO)NC(=O)[C@H](Cc1ccc(O)cc1)NC(=O)[C@H](CC(=O)O)NC(=O)[C@H](CO)NC(=O)[C@@H](NC(=O)[C@H](Cc1ccccc1)NC(=O)[C@@H](NC(=O)CNC(=O)[C@H](CCC(=O)O)NC(=O)CCNC(=O)C(CC)(CC)c1ccc(Cl)cc1)[C@@H](C)O)[C@@H](C)O)[C@@H](C)CC)[C@@H](C)CC)C(C)C)C(=O)N[C@@H](C)C(=O)NCC(=O)NCC(=O)N1CCC[C@H]1C(=O)N[C@@H](CO)C(=O)N[C@@H](CO)C(=O)NCC(=O)N[C@@H](C)C(=O)N1CCC[C@H]1C(=O)N1CCC[C@H]1C(=O)N1CCC[C@H]1C(=O)N[C@@H](CO)C(N)=O` [Compound 176] ({X39-βAla}-EGTFTSDYSI[Aib]LDKIAQK([AEEA-AEEA-γGlu-C20 diacid])AFVQWLIAGGPSSGAPPPS-NH2): the half-maximal effective concentration (EC50) at GIP receptor [1] was 0.001 to 0.01 µM; at GLP-1 receptor [2] it was over 1 µM; on GLP-1 receptor [3], 0.001 to 0.01 µM; at GIP receptor [4] it was under 1 µM. In addition, the Emax on GIP receptor [1] and at GLP-1 receptor [3] was 110% throughout.
